Ends that are not written are not given here. Peptide text beside a SMILES is read from it.
What was measured:
HSC70 [1] = biological target: T1, HSC70 (Homo sapiens, UniProt P11142); experiment: Competition ELISA: soluble peptide vs HSC70 binding to immobilized 1097-L; conditions: for HSC70 binding site by competition screen (in words): 1 μM HSC70, 100 μM soluble peptide, Fig. 3c/5, cutoff twice SD of 733-L, n ≥ 4; for competition of HSC70 binding to immobilized 1097-L (in words): 1 μM HSC70, soluble peptide up to 100 μM
T1 construct: made in house
Protocol: (§1) HSC70, DJA1 and DJA2 were purified as His-tagged proteins, as described. HSC70 was also amplified by PCR with an N-terminal FLAG tag, inserted into pPROEXHTa (Invitrogen) and purified as described. HSC70 was stored in 100 mM KOAc, 20 mM HEPES-KOH pH 7.5, 5 mM MgOAC2 (buffer G), DJA1 and DJA2 in 500 mM NaCl, 20 mM HEPES-KOH pH 7.5, 5 mM MgOAC2 (buffer H). Avi-tagged CFTR NBD1 was purified as described.
(§2) The CFTR peptide library was designed as 15-mers with 10-residue overlaps covering the cytosolic sequences as in Fig. 1a and Supplemental Table S1. Synthetic peptides (Mimotopes, PepSet purity) contained an N-terminal biotin followed by linker sequence GSGS and the 15-mer sequence. […] Peptides were reconstituted in DMSO or water.
(§3) For peptide binding, streptavidin-coated black 96-well plates (Nunc Maxisorp, ThermoFisher) were pre-rinsed with PBS containing 0.05% Tween-20 (PBST), and 5 µM biotinylated peptides in 100 µl PBS were bound overnnight at 4 °C with agitation. Plates were washed with PBST and blocked with PBST containing 0.5% bovine serum albumin (BSA) for 1 h. After removal of blocking solution, 100 µl reactions containing chaperones at indicated concentrations were bound for 45 min at room temperature with agitation. HSC70 reactions were in buffer G containing 1 mM ATP, DJA1 and DJA2 reactions were in buffer H. For competition assays, chaperones and peptides were mixed at indicated concentrations immediately before the reactions were added to the plates. For detections, the plates were washed in PBST and 5 μM His-Probe-HRP conjugate (ThermoFisher) in 100 μL PBST added for 15 min with agitation. After washing in PBST, plates were developed using Amplex Red (ThermoFisher) according to manufacturer’s instructions, in a fluorescence plate reader (Tecan M1000).
(§4) Affinities were determined separately from binding curves and from competition curves. Data from binding of chaperones to immobilized peptides (Fig. 2a,b and Supplemental Fig. S2a–c) were fit to the equation 1/(1 − i) = (C/i)/Kd^B − b, where i is the relative saturation, C is the chaperone concentration (1 μM), Kd^B is the apparent dissociation constant from the binding data. In the plot of 1/(1 − i) against (C/i), the slope is 1/Kd^B, and −b is the intercept. […] In the plot of bi + (C/Kd^B)/i over D, the slope is 1/Kd^C, and e is the intercept. The amount of chaperone bound in the absence of competitor was set as i = 1.
(§5) Established statistical methods[71]–[73] were used to analyze the data for chaperone binding to the peptide library. First, biological and statistical outliers were identified with the Tukey method in two rounds, for biological and then statistical outliers. […] Binding data were represented as multiples of the standard deviations from the normal means. Binding in the presence of competitor peptides were shown as a fraction of binding in the absence of competitor, or the fraction competed calculated as 1 – fraction bound. Values were compared using a two-tailed unpaired Student’s t-test assuming unequal variance.

HSC70 and DJA2 = experiment: Refolding of guanidine denatured luciferase by HSC70 and DJA2; format: biochemical; conditions: 4 μM each HSC70 and DJA2, 100 nM luciferase, 100 μM peptide (25-fold excess), 60 min, % of control without peptide; n = 3
Protocol: Refolding of guanidine denatured luciferase with HSC70 and DJA2 was as described. […] To monitor refolding, luciferase activity was measured in a luminometer (Berthold Sirius) with the luciferase assay kit (Promega). For co-IPs, 20 μL reaction aliquots were stopped by dilution at 4 °C to 500 μL with buffer containing 0.1% Triton X-100, 0.2% BSA and 0.04 mg/mL apyrase (Sigma). Reactions were incubated with FLAG-M2 magnetic beads (Sigma) for 1 h at 4 °C with agitation, then beads were isolated and washed with buffer G containing 0.1% Triton X-100, and eluted with 40 μL of 1 μg/mL FLAG peptide in the same buffer. Samples were analyzed on Western blots detected with antibodies against luciferase (Sigma, L2164) and the FLAG-M2 tag (Sigma, F1804).

DJA1 = biological target: T2, DJA1 (Homo sapiens, UniProt P31689); experiment: Competition ELISA: soluble peptide vs DJA1 binding to immobilized 1097-L; conditions: for DJA1 binding site by competition screen (in words): 1 μM DJA1, 100 μM soluble peptide, Fig. 3c/5, cutoff twice SD of 733-L, n ≥ 4
T2 construct: made in house
Protocol: as §1, §2, §3, §4, §5

HSC70 [2] = biological target: T1, HSC70; experiment: ELISA binding of HSC70 to immobilized CFTR NBD1 and competition by soluble peptides; conditions: 1 μM HSC70, with ATP, soluble peptide, Fig. 4a; n = 5
Protocol: as §1
For NBD1 binding, 100 nM of strep-tagged NBD1 in 100 µl of 150 mM NaCl, 50 mM Na2HPO4 pH 7.5, 1 mM ATP, and 40 µM DTT (buffer N), was bound to streptavidin plates for 1 hour at 4 °C with agitation. Plates were washed with PBST and incubated in buffer N at 30 °C in a water bath for 5 min. Then, plates were blocked in PBST containing 0.5% BSA, followed by the addition of HSC70 binding reactions, and detection as above.

DJA2 = biological target: T3, DJA2 (Homo sapiens, UniProt O60884); experiment: Competition ELISA: soluble peptide vs DJA2 binding to immobilized 1097-L; conditions: for DJA2 binding site by competition screen (in words): 1 μM DJA2, 100 μM soluble peptide, Fig. 3c/5, cutoff twice SD of 733-L, n ≥ 4; for competition of DJA2 binding to immobilized 1097-L (in words): 1 μM DJA2, soluble peptide up to 100 μM
T3 construct: made in house
Protocol: as §1, §2, §3, §4, §5

T3 sequence (O60884 whole entry): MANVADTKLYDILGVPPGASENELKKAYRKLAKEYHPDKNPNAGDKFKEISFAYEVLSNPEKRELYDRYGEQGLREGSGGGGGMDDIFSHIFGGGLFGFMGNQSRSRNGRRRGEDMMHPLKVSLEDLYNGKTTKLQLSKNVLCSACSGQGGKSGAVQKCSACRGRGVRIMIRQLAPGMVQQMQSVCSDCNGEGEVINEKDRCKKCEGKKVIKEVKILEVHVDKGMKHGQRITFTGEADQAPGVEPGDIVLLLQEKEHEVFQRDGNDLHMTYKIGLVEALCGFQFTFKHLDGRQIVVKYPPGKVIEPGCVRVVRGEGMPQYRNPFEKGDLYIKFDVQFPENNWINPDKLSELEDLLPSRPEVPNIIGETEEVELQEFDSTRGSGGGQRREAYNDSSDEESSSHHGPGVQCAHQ
T1 sequence (P11142 whole entry): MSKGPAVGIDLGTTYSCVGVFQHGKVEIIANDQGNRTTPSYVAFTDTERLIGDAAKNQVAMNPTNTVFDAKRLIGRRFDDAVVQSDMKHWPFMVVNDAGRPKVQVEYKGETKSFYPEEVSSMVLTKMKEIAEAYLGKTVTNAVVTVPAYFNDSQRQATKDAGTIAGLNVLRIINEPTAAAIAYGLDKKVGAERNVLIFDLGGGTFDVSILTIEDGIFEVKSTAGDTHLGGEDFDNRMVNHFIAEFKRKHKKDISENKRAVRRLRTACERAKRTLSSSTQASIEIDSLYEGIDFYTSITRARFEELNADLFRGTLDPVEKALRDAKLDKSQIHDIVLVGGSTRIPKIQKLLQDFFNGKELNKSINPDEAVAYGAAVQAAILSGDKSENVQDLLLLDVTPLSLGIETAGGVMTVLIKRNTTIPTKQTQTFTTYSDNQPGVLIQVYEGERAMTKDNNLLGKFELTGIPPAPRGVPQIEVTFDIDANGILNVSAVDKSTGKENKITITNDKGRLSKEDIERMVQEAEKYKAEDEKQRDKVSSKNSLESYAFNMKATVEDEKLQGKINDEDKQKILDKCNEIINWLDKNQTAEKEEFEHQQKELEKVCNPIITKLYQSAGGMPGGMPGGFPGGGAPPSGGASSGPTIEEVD
T2 sequence (P31689 whole entry): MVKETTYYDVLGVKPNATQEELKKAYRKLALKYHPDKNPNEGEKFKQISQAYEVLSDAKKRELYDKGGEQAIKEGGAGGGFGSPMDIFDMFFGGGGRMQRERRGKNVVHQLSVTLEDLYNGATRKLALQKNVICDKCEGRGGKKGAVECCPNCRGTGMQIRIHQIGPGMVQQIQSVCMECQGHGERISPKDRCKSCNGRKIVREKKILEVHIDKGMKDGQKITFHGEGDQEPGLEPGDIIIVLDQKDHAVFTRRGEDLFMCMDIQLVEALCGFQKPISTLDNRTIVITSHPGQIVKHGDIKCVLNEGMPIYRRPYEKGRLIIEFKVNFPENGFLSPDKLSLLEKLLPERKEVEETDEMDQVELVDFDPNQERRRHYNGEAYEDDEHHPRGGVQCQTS

Row | Compound | HSC70 binding site by competition screen (in words) (HSC70 [1]) | competition of HSC70 binding to immobilized 1097-L (in words) (HSC70 [1]) | effect on luciferase refolding (in words) (HSC70 and DJA2) | DJA1 binding site by competition screen (in words) (DJA1) | competition of DJA1 binding to immobilized 1097-L (in words) (DJA1; 1 μM DJA1, soluble peptide up to 100 μM) | competition of HSC70 binding to immobilized NBD1 (in words) (HSC70 [2]) | DJA2 binding site by competition screen (in words) (DJA2) | competition of DJA2 binding to immobilized 1097-L (in words) (DJA2)
1 | CC[C@H](C)[C@H](NC(=O)[C@@H](NC(=O)[C@@H](NC(=O)[C@H](CS)NC(=O)[C@@H](N)CC(=O)O)[C@@H](C)O)C(C)C)C(=O)N[C@@H](CC(C)C)C(=O)N[C@@H](CS)C(=O)N[C@@H](CCC(=O)O)C(=O)N[C@@H](Cc1c[nH]cn1)C(=O)O [Peptide 1398-S] (H-DCTVILCEH-OH; N-terminus and C-terminus assumed) | bound by HSC70, DJA2 and DJA1 | competed | inhibited refolding | bound by HSC70, DJA2 and DJA1 | competed | effective competitors | bound by HSC70, DJA2 and DJA1 | competed
2 | TSLLMVIMG [Peptide 469-S] | HSC70-DJA2 sites | competed HSC70 well | inhibited refolding | – | – | competed the majority of HSC70 | HSC70-DJA2 sites | competed
3 | DKILILHEG [Peptide 618-S] | bound by HSC70, DJA2 and DJA1 | competed HSC70 well | partial but still significant | bound by HSC70, DJA2 and DJA1 | – | competed the majority of HSC70 | bound by HSC70, DJA2 and DJA1 | –
